Reference: PubChem BioAssay AID256 (DTP/NCI, 2004)
Values joined by “and” are separate entries in the source; they are usually repeats but may differ in a detail not shown here. Equal values may be shown once. Inconclusive results and toxic doses are left out. Rule for the calls: active = survival T/C of 150% or more; inactive = T/C below 125% in these data.

Tested on: CD2F1 mice, L1210 leukemia ip, survival T/C
Experiment: NCI In Vivo Anticancer Drug Screen. Data for tumor model L1210 Leukemia (intraperitoneal) in CD2F1 (CDF1) mice
Details: higher = longer survival
How it was run: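 Mice carrying a transplanted tumor received test compound or vehicle alone. The value is the measurement in the treated group divided by that in the vehicle-treated control group.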

[1] = endpoint: mean survival time, dose: 12.5 mg/kg/injection, schedule: Q01DX009 (ip), vehicle: other
[2] = endpoint: mean survival time, dose: 25.0 mg/kg/injection, schedule: Q01DX009 (ip), vehicle: other
[3] = endpoint: mean survival time, dose: 50.0 mg/kg/injection, schedule: Q01DX009 (ip), vehicle: other
[4] = endpoint: mean survival time, dose: 100.0 mg/kg/injection, schedule: Q01DX009 (ip), vehicle: other
[5] = endpoint: mean survival time, dose: 100.0 mg/kg/injection, schedule: Q01DX009 (ip), vehicle: saline with Tween-80
[6] = endpoint: mean survival time, dose: 200.0 mg/kg/injection, schedule: Q01DX009 (ip), vehicle: saline with Tween-80
[7] = endpoint: mean survival time, dose: 400.0 mg/kg/injection, schedule: Q01DX009 (ip), vehicle: saline with Tween-80
[8] = endpoint: mean survival time, dose: 100.0 mg/kg/injection, schedule: Q04DX003 (ip), vehicle: saline with Tween-80
[9] = endpoint: mean survival time, dose: 200.0 mg/kg/injection, schedule: Q04DX003 (ip), vehicle: saline with Tween-80
[10] = endpoint: mean survival time, dose: 400.0 mg/kg/injection, schedule: Q04DX003 (ip), vehicle: saline with Tween-80
[11] = endpoint: mean survival time, dose: 100.0 mg/kg/injection, schedule: Q01DX001 (ip), vehicle: saline with Tween-80
[12] = endpoint: mean survival time, dose: 200.0 mg/kg/injection, schedule: Q01DX001 (ip), vehicle: saline with Tween-80
[13] = endpoint: mean survival time, dose: 400.0 mg/kg/injection, schedule: Q01DX001 (ip), vehicle: saline with Tween-80
[14] = endpoint: mean survival time, dose: 50.0 mg/kg/injection, schedule: Q01DX009 (ip), vehicle: saline with Tween-80

Measured: T/C

Nc1nc(N)c(N=Nc2cccc3ccccc23)c(N)n1
inactive: endpoint: mean survival time, dose: 6.25 mg/kg/injection, schedule: Q01DX009 (ip), vehicle: other 98 % of control | [1] 96 % of control | [2] 95 % of control | endpoint: mean survival time, dose: 25.0 mg/kg/injection, schedule: Q01DX009 (ip), vehicle: water 103 % of control | [3] 95 % of control | endpoint: mean survival time, dose: 50.0 mg/kg/injection, schedule: Q01DX009 (ip), vehicle: water 104 % of control | [4] 96 % of control | endpoint: mean survival time, dose: 100.0 mg/kg/injection, schedule: Q01DX009 (ip), vehicle: water 87 % of control

COC(=O)N1CC=CCN1C(=O)OC
inactive: endpoint: mean survival time, dose: 100.0 mg/kg/injection, schedule: Q01DX009 (ip), vehicle: saline 105 % of control | endpoint: mean survival time, dose: 200.0 mg/kg/injection, schedule: Q01DX009 (ip), vehicle: saline 108 % of control | endpoint: mean survival time, dose: 400.0 mg/kg/injection, schedule: Q01DX009 (ip), vehicle: saline 102 % of control

Nc1nc(N)c2nc(CCSc3ccc(C(=O)NC(CCC(=O)O)C(=O)O)cc3)cnc2n1 (stereo not drawn)
inactive: endpoint: mean survival time, dose: 0.38 mg/kg/injection, schedule: Q01DX009 (ip), vehicle: sodium bicarbonate 96 % of control | endpoint: mean survival time, dose: 0.75 mg/kg/injection, schedule: Q01DX009 (ip), vehicle: sodium bicarbonate 100 % of control | endpoint: mean survival time, dose: 1.5 mg/kg/injection, schedule: Q01DX009 (ip), vehicle: sodium bicarbonate 104 % of control | endpoint: mean survival time, dose: 3.0 mg/kg/injection, schedule: Q01DX009 (ip), vehicle: sodium bicarbonate 95 % of control | endpoint: mean survival time, dose: 6.0 mg/kg/injection, schedule: Q01DX009 (ip), vehicle: sodium bicarbonate 91 % of control | endpoint: mean survival time, dose: 12.0 mg/kg/injection, schedule: Q01DX009 (ip), vehicle: sodium bicarbonate 93 % of control | endpoint: mean survival time, dose: 24.0 mg/kg/injection, schedule: Q01DX009 (ip), vehicle: sodium bicarbonate 102 % of control | endpoint: mean survival time, dose: 48.0 mg/kg/injection, schedule: Q01DX009 (ip), vehicle: sodium bicarbonate 106 % of control

N=C(N)SCc1ccccc1Cl
inactive: endpoint: mean survival time, dose: 1.56 mg/kg/injection, schedule: Q01DX009 (ip), vehicle: saline 101 % of control | endpoint: mean survival time, dose: 3.13 mg/kg/injection, schedule: Q01DX009 (ip), vehicle: saline 101 % of control | endpoint: mean survival time, dose: 6.25 mg/kg/injection, schedule: Q01DX009 (ip), vehicle: saline 101 % of control

O=C1NCCN1c1ccccc1[N+](=O)[O-]
inactive: [1] 96 % of control | [2] 91 % of control | [3] 96 % of control | [4] 108 % of control | endpoint: mean survival time, dose: 200.0 mg/kg/injection, schedule: Q01DX009 (ip), vehicle: other 101 % of control

O=c1nc(NCC23CC4CC(CC(C4)C2)C3)ccn1C1OC(CO)C(O)C1O (stereo not drawn)
inactive: endpoint: median survival time, dose: 12.5 mg/kg/injection, schedule: Q01DX005 (ip), vehicle: distilled water + Tween-80 100 % of control | endpoint: median survival time, dose: 25.0 mg/kg/injection, schedule: Q01DX005 (ip), vehicle: distilled water + Tween-80 101 % of control | endpoint: median survival time, dose: 50.0 mg/kg/injection, schedule: Q01DX005 (ip), vehicle: distilled water + Tween-80 101 % of control | endpoint: median survival time, dose: 100.0 mg/kg/injection, schedule: Q01DX005 (ip), vehicle: distilled water + Tween-80 94 % of control | endpoint: median survival time, dose: 200.0 mg/kg/injection, schedule: Q01DX005 (ip), vehicle: distilled water + Tween-80 91 % of control

C(=Nc1ccccc1)c1ccc(-c2ccccc2)cc1
inactive: [5] 95 % of control | endpoint: mean survival time, dose: 100.0 mg/kg/injection, schedule: Q04DX003 (ip), vehicle: saline sonified 97 % of control | [6] 98 % of control | endpoint: mean survival time, dose: 200.0 mg/kg/injection, schedule: Q04DX003 (ip), vehicle: saline sonified 101 % of control | [7] 108 % of control | endpoint: mean survival time, dose: 400.0 mg/kg/injection, schedule: Q04DX003 (ip), vehicle: saline sonified 94 % of control

CN(N=O)C(=O)Nc1ccc(C2CC(=O)N(C)C2=O)cc1 (stereo not drawn)
inactive: endpoint: mean survival time, dose: 12.5 mg/kg/injection, schedule: Q01DX001 (ip), vehicle: distilled water + Tween-80 113 % of control | endpoint: mean survival time, dose: 25.0 mg/kg/injection, schedule: Q01DX001 (ip), vehicle: distilled water + Tween-80 101 % of control and 106 % of control | endpoint: mean survival time, dose: 50.0 mg/kg/injection, schedule: Q01DX001 (ip), vehicle: distilled water + Tween-80 108 % of control and 112 % of control | endpoint: mean survival time, dose: 100.0 mg/kg/injection, schedule: Q01DX001 (ip), vehicle: distilled water + Tween-80 113 % of control | endpoint: mean survival time, dose: 200.0 mg/kg/injection, schedule: Q01DX001 (ip), vehicle: distilled water + Tween-80 112 % of control

[Cl][Pt+2][Cl].[NH-]CC1(C[NH-])CCCCC1
inactive: endpoint: mean survival time, dose: 25.0 mg/kg/injection, schedule: Q04DX003 (ip), vehicle: saline 95 % of control

CON(C)CC(O)c1ccccc1 (stereo not drawn)
inactive: [8] 94 % of control | [9] 92 % of control

O=C(O)C1(c2ccccc2)CC1
inactive: endpoint: mean survival time, dose: 100.0 mg/kg/injection, schedule: Q01DX009 (ip), vehicle: saline sonified 88 % of control | [8] 97 % of control | endpoint: mean survival time, dose: 200.0 mg/kg/injection, schedule: Q01DX009 (ip), vehicle: saline sonified 92 % of control | [9] 97 % of control | endpoint: mean survival time, dose: 400.0 mg/kg/injection, schedule: Q01DX009 (ip), vehicle: saline sonified 94 % of control | [10] 110 % of control

O=S(=O)(O)c1ccc2ncccc2c1
inactive: endpoint: mean survival time, dose: 50.0 mg/kg/injection, schedule: Q04DX002 (ip), vehicle: saline with Tween-80 111 % of control

COc1ccc(C2=CCN(c3ccc(C)cc3)P(=O)(N(CCCl)CCCl)O2)cc1 (stereo not drawn)
inactive: endpoint: mean survival time, dose: 31.25 mg/kg/injection, schedule: Q01DX001 (ip), vehicle: saline 100 % of control | endpoint: mean survival time, dose: 62.5 mg/kg/injection, schedule: Q01DX001 (ip), vehicle: saline 100 % of control | endpoint: mean survival time, dose: 125.0 mg/kg/injection, schedule: Q01DX001 (ip), vehicle: saline 97 % of control | endpoint: mean survival time, dose: 250.0 mg/kg/injection, schedule: Q01DX001 (ip), vehicle: saline 102 % of control | endpoint: mean survival time, dose: 500.0 mg/kg/injection, schedule: Q01DX001 (ip), vehicle: saline 91 % of control

CCOC(=O)c1ccc(NCN2C(=O)CCC2=O)cc1
inactive: [5] 95 % of control | [6] 101 % of control | [7] 102 % of control

CC(C)N(CCNc1nc(C(Cl)(Cl)Cl)nc2ccc(Cl)cc12)C(C)C
inactive: [11] 103 % of control | [5] 96 % of control | [12] 94 % of control | [6] 96 % of control | [13] 103 % of control | [7] 95 % of control

[Co].[N-]=C=S.[N-]=C=S.[N-]=C=S.[N-]=C=S
inactive: endpoint: mean survival time, dose: 25.0 mg/kg/injection, schedule: Q04DX002 (ip), vehicle: saline 104 % of control | endpoint: mean survival time, dose: 50.0 mg/kg/injection, schedule: Q04DX002 (ip), vehicle: saline 104 % of control | endpoint: mean survival time, dose: 100.0 mg/kg/injection, schedule: Q04DX002 (ip), vehicle: saline 117 % of control and 112 % of control

C1CCC(CCCC(CCCC2CCCCC2)CCCC2CCCCC2)CC1
inactive: [11] 94 % of control | [12] 91 % of control | [13] 88 % of control

COC(=O)C(=C(C)C)[N+](=O)[O-]
inactive: [8] 91 % of control | [9] 95 % of control | [10] 95 % of control

CN(C)N=Nc1c(F)cc(F)c(F)c1F
inactive: endpoint: mean survival time, dose: 25.0 mg/kg/injection, schedule: Q01DX009 (ip), vehicle: saline with Tween-80 101 % of control | [14] 104 % of control | [5] 104 % of control

COc1cc(Cl)ccc1NC(=O)Oc1c(Cl)cccc1Cl
inactive: [14] 104 % of control | [5] 100 % of control | [6] 100 % of control

Cc1cc(N)nc2ccccc12
inactive: endpoint: mean survival time, dose: 3.12 mg/kg/injection, schedule: Q04DX002 (ip), vehicle: saline with Tween-80 101 % of control | endpoint: mean survival time, dose: 6.25 mg/kg/injection, schedule: Q04DX002 (ip), vehicle: saline with Tween-80 105 % of control | endpoint: mean survival time, dose: 12.5 mg/kg/injection, schedule: Q04DX002 (ip), vehicle: saline with Tween-80 94 % of control and 101 % of control

CCCCCCSC(=O)Nc1ccc(C)c(NC(=O)SCCCCCC)c1
inactive: [14] 95 % of control | [5] 93 % of control | [6] 93 % of control
